This experiment relates to M. tuberculosis H37Rv_gfp. In kind it is cell-based, Mycobacterium tuberculosis.
[1] abbreviates: in combination with pretomanid 20 ng·mL−1, 5 days at 37° C., […], read-out: EC50 H37Rv_gfp.
[2] abbreviates: in combination with pretomanid, unit inferred, read-out: average EC50 H37Rv_gfp.

The record followed here is patent US20250382273A1 (INSTITUT NATIONAL DE LA SANTE ET DE LA RECHERCHE MEDICALE, priority 2022, published 2025).

Molecules are shown by their SMILES. Read-outs that look alike come from different tables or passages of the source.

With `O=C(Nc1nc2ccc(-c3ccc(Cl)c(Cl)c3)cc2s1)[C@@H]1C2C=CC(C2)[C@@H]1C(=O)O` (some centres unmarked) [Example 56, 3-[[6-(3,4-dichlorophenyl)-1,3-benzothiazol-2-yl]carbamoyl]bicycle [2.2.1]hept-5-ene-2-carboxylic acid], the EC50 under setting [1] is less than 1000 nM. For `C#CCOc1cccc2sc(NC(=O)[C@@H]3C4C=CC(C4)[C@@H]3C(=O)O)nc12` (some centres unmarked) [Example 75, 3-[(4-prop-2-ynoxy-1,3-benzothiazol-2-yl)carbamoyl]bicyclo[2.2.1]hept-5-ene-2-carboxylic acid], the concentration for a half-maximal effect (EC50) under setting [1] was less than 1000 nM.

Turning to `O=C(Nc1nc2cc(Br)ccc2s1)[C@@H]1C2C=CC(C2)[C@@H]1C(=O)O` (some centres unmarked) [Example 48, 3-[(5-bromo-1,3-benzothiazol-2-yl)carbamoyl]bicyclo[2.2.1]hept-5-ene-2-carboxylic acid], the EC50 under setting [1] lay within 1000 to 5000 nM.

`O=C(Nc1nc2ccc(Oc3ccc(F)cc3)cc2s1)[C@@H]1C2C=CC(C2)[C@@H]1C(=O)O` (some centres unmarked) [Example 21, 3-[[6-(4-fluorophenoxy)-1,3-benzothiazol-2-yl]carbamoyl]bicyclo[2.2.1]hept-5-ene-2-carboxylic acid]: the EC50 is, setting by setting: under setting [1], less than 1000 nM; under setting [2], 270 nM. For the molecule `O=C(Nc1nc2ccc(Nc3ccc(F)cn3)cc2s1)[C@@H]1C2C=CC(C2)[C@@H]1C(=O)O` (some centres unmarked) [Example 86, 3-[[6-[(5-fluoro-2-pyridyl)amino]-1,3-benzothiazol-2-yl]carbamoyl]bicyclo[2.2.1]hept-5-ene-2-carboxylic acid], under setting [1], the 50% effective concentration (EC50) was less than 1000 nM. Regarding `O=C(Nc1nc2ccc(Cc3ccccc3)cc2s1)[C@@H]1C2C=CC(C2)[C@@H]1C(=O)O` (some centres unmarked) [Example 20, 3-[(6-benzyl-1,3-benzothiazol-2-yl)carbamoyl]bicyclo[2.2.1]hept-5-ene-2-carboxylic acid], the EC50 under setting [1] was less than 1000 nM.

Regarding `O=C(O)C1C2C=CC(C2)C1C(=O)Nc1nc2ccc([N+](=O)[O-])cc2s1` (centres unmarked) [Example 38, 3-[(6-nitro-1,3-benzothiazol-2-yl)carbamoyl]bicyclo[2.2.1]hept-5-ene-2-carboxylic acid], under setting [1], the 50% effective concentration (EC50) lay within 1000 to 5000 nM.

As to `O=C(O)C1C2C=CC(C2)[C@H]1C(=O)Nc1nc2ccc(-c3ccc(C(F)(F)F)nc3)cc2s1` (some centres unmarked) [Example 66, 3-[[6-[6-(trifluoromethyl)-3-pyridyl]-1,3-benzothiazol-2-yl]carbamoyl]bicyclo [2.2.1]hept-5-ene-2-carboxylic acid], the concentration for a half-maximal effect (EC50) under setting [1] was less than 1000 nM.

In the case of `COc1ccc(-c2ccc3nc(NC(=O)[C@@H]4C5C=CC(C5)[C@@H]4C(=O)O)sc3c2)cc1` (some centres unmarked) [Example 54, 3-[[6-(4-methoxyphenyl)-1,3-benzothiazol-2-yl]carbamoyl]bicyclo[2.2.1]hept-5-ene-2-carboxylic acid], the 50% effective concentration (EC50) runs as follows: under setting [1], less than 1000 nM; under setting [2], 110 nM. With `O=C(Nc1nc2ccc(-c3ccc4ncccc4c3)cc2s1)[C@@H]1C2C=CC(C2)[C@@H]1C(=O)O` (some centres unmarked) [Example 81, 3-[[6-(6-quinolyl)-1,3-benzothiazol-2-yl]carbamoyl]bicyclo[2.2.1]hept-5-ene-2-carboxylic acid], the EC50 under setting [1] was 1000 to 5000 nM.

In the case of `O=C1[C@@H]2[C@H](C(=O)N1c1nc3ccc(Oc4ccc(C(F)(F)F)cn4)cc3s1)[C@@H]1C=C[C@H]2C1` [Example 36, (1R,2S,6R,7S)-4-[6-[[5-(trifluoromethyl)-2-pyridyl]oxy]-1,3-benzothiazol-2-yl]-4-azatricyclo[5.2.1.02,6]dec-8-ene-3,5-dione], the EC50 reads like this: under setting [1], less than 1000 nM; under setting [2], 220 nM. For `O=C(Nc1nc2ccc(Oc3ccncc3)cc2s1)[C@@H]1C2C=CC(C2)[C@@H]1C(=O)O` (some centres unmarked) [Example 24, 3-[[6-(4-pyridyloxy)-1,3-benzothiazol-2-yl]carbamoyl]bicyclo[2.2.1]hept-5-ene-2-carboxylic acid], the half-maximal effective concentration (EC50) under setting [1] lay in the range of 5000 to 10000 nM.

On to `O=C(Nc1nc2ccc(-c3cccc(C(F)(F)F)c3)cc2s1)[C@@H]1C2C=CC(C2)[C@@H]1C(=O)O` (some centres unmarked) [Example 59, 3-[[6-[3-(trifluoromethyl)phenyl]-1,3-benzothiazol-2-yl]carbamoyl]bicyclo[2.2.1]hept-5-ene-2-carboxylic acid], for which, under setting [1], the EC50 was less than 1000 nM.

Take `O=C(Nc1nc2ccc(-c3ccc(N4CCCCC4)cc3)cc2s1)[C@@H]1C2C=CC(C2)[C@@H]1C(=O)O` (some centres unmarked) [Example 100]: the 50% effective concentration (EC50) under setting [1] is less than 1000 nM. Same read-out and setting: then `O=C(Nc1nc2ccc(Br)cc2s1)[C@@H]1C2C=CC(C2)[C@@H]1C(=O)O` (some centres unmarked) [Example 47, 3-[(6-bromo-1,3-benzothiazol-2-yl)carbamoyl]bicyclo[2.2.1]hept-5-ene-2-carboxylic acid], with less than 1000 nM; and `O=C1[C@@H]2C3C=CC(C3)[C@@H]2C(=O)N1c1nc2ccc(Nc3cccc(C(F)(F)F)n3)cc2s1` [Example 97, 4-[6-[[6-(trifluoromethyl)-2-pyridyl]amino]-1,3-benzothiazol-2-yl]-4-azatricyclo[5.2.1.02,6]dec-8-ene-3,5-dione], with less than 1000 nM; and `Cc1ccc(-c2ccc3nc(NC(=O)[C@@H]4C5C=CC(C5)[C@@H]4C(=O)O)sc3c2)cc1` (some centres unmarked) [Example 53, 3-[[6-(p-tolyl)-1,3-benzothiazol-2-yl]carbamoyl]bicyclo[2.2.1]hept-5-ene-2-carboxylic acid], with less than 1000 nM.

Consider `O=C(Nc1nc2ccc(-c3ccccc3)cc2s1)[C@@H]1C2C=CC(C2)[C@@H]1C(=O)O` (some centres unmarked) [Example 51], for which the half-maximal effective concentration (EC50) under setting [1] was less than 1000 nM. On the same count and under the same terms, then `O=C(Nc1nc2ccc(-c3ccccc3C(F)(F)F)cc2s1)[C@@H]1C2C=CC(C2)[C@@H]1C(=O)O` (some centres unmarked) [Example 57, 3-[6-[[2-(trifluoromethyl)phenyl]-1,3-benzothiazol-2-yl]carbamoyl]bicyclo[2.2.1]hept-5-ene-2-carboxylic acid], with 1000 to 5000 nM.

In the case of `O=C1[C@@H]2[C@H](C(=O)N1c1nc3ccc(-c4ccc(O)cc4)cc3s1)[C@@H]1C=C[C@H]2C1` [Example 63, (1R,2S,6R,7S)-4-[6-(4-hydroxyphenyl)-1,3-benzothiazol-2-yl]-4-azatricyclo[5.2.1.02,6]dec-8-ene-3,5-dione], the concentration for a half-maximal effect (EC50) (read-out: EC50 H37Rv_gfp) lay in the range of 5000 to 10000 nM. Take `Cc1ccc2nc(N3C(=O)[C@@H]4[C@@H]5CC[C@@H](C5)[C@@H]4C3=O)sc2c1` [Example 4, (1S,2S,6R,7R)-4-(6-methyl-1,3-benzothiazol-2-yl)-4-azatricyclo[5.2.1.02,6]decane-3,5-dione]: under setting [1], the 50% effective concentration (EC50) lay in the range of 10000 to 20000 nM. Same read-out and setting: the result for `O=C1[C@@H]2[C@H](C(=O)N1c1nc3ccc(-c4ccc(C(F)(F)F)nc4)cc3s1)[C@@H]1C=C[C@H]2C1` [Example 67, (1R,2S,6R,7S)-4-[6-[6-(trifluoromethyl)-3-pyridyl]-1,3-benzothiazol-2-yl]-4-azatricyclo [5.2.1.02,6]dec-8-ene-3,5-dione] reads 1000 to 5000 nM. With `O=C1[C@@H]2[C@H](C(=O)N1c1nc3ccc(Oc4cc(C(F)(F)F)ccn4)cc3s1)[C@@H]1C=C[C@H]2C1` [Example 28, (1R,2S,6R,7S)-4-[6-[[4-(trifluoromethyl)-2-pyridyl]oxy]-1,3-benzothiazol-2-yl]-4-azatricyclo[5.2.1.02,6]dec-8-ene-3,5-dione], under “read-out: EC50 H37Rv_gfp”, the concentration giving a half-maximal response (EC50) was less than 1000 nM.

In the case of `O=C1[C@@H]2[C@H](C(=O)N1c1nc3ccc(-c4ccsc4)cc3s1)[C@@H]1C=C[C@H]2C1` [Example 68, (1R,2S,6R,7S)-4-[6-(3-thienyl)-1,3-benzothiazol-2-yl]-4-azatricyclo[5.2.1.02,6]dec-8-ene-3,5-dione], the half-maximal effective concentration (EC50) under setting [1] lay in the range of 1000 to 5000 nM. As for `O=C(Nc1nc2ccc(-c3ccoc3)cc2s1)[C@@H]1C2C=CC(C2)[C@@H]1C(=O)O` (some centres unmarked) [Example 69, 3-[[6-(3-furyl)-1,3-benzothiazol-2-yl]carbamoyl]bicyclo[2.2.1]hept-5-ene-2-carboxylic acid], under setting [1], the half-maximal effective concentration (EC50) was less than 1000 nM.

For the molecule `Cc1ccnc(Oc2ccc3nc(N4C(=O)[C@@H]5C6C=CC(C6)[C@@H]5C4=O)sc3c2)c1` [Example 30], the concentration for a half-maximal effect (EC50) under setting [1] was less than 1000 nM.

Regarding `O=C1[C@@H]2C3C=CC(C3)[C@@H]2C(=O)N1c1nc2ccc(Nc3cccc(F)n3)cc2s1` [Example 89, 4-[6-[(6-fluoro-2-pyridyl)amino]-1,3-benzothiazol-2-yl]-4-azatricyclo[5.2.1.02,6]dec-8-ene-3,5-dione], the concentration for a half-maximal effect (EC50) under setting [1] lay in the range of 1000 to 5000 nM. Still for that read-out and setting: the result for `Cc1ccc2sc(NC(=O)[C@@H]3C4C=CC(C4)[C@@H]3C(=O)O)nc2c1C` (some centres unmarked) [Example 15, 3-[(4,5-dimethyl-1,3-benzothiazol-2-yl)carbamoyl]bicyclo[2.2.1]hept-5-ene-2-carboxylic acid] reads less than 1000 nM; that for `C#Cc1ccc2nc(N3C(=O)[C@@H]4[C@H](C3=O)[C@@H]3C=C[C@H]4C3)sc2c1` [Example 72, (1R,2S,6R,7S)-4-(6-ethynyl-1,3-benzothiazol-2-yl)-4-azatricyclo[5.2.1.02,6]dec-8-ene-3,5-dione], 1000 to 5000 nM; that for `C#CCOc1cccc2sc(N3C(=O)[C@@H]4[C@H](C3=O)[C@@H]3C=C[C@H]4C3)nc12` [Example 76, (1R,2S,6R,7S)-4-(4-prop-2-ynoxy-1,3-benzothiazol-2-yl)-4-azatricyclo[5.2.1.02,6]dec-8-ene-3,5-dione], 10000 to 20000 nM. On the same count and under the same terms, then `O=C(Nc1nc2ccc(-c3ccncc3)cc2s1)[C@@H]1C2C=CC(C2)[C@@H]1C(=O)O` (some centres unmarked) [Example 64, 3-[[6-(4-pyridyl)-1,3-benzothiazol-2-yl]carbamoyl]bicyclo[2.2.1]hept-5-ene-2-carboxylic acid], with 1000 to 5000 nM; and `O=C1[C@@H]2[C@H](C(=O)N1c1nc3ccc(-c4ccc(C(F)(F)F)cc4)cc3s1)[C@@H]1C=C[C@H]2C1` [Example 61, (1R,2S,6R,7S)-4-[6-[4-(trifluoromethyl)phenyl]-1,3-benzothiazol-2-yl]-4-azatricyclo[5.2.1.02,6]dec-8-ene-3,5-dione], with less than 1000 nM.

With `CCOc1ccc2nc(NC(=O)[C@@H]3C4C=CC(C4)[C@@H]3C(=O)O)sc2c1` (some centres unmarked) [Example 7, 3-[(6-ethoxy-1,3-benzothiazol-2-yl)carbamoyl]bicyclo[2.2.1]hept-5-ene-2-carboxylic acid], the EC50 reads like this: under setting [1], less than 1000 nM; under setting [2], 150 nM. With `O=C(Nc1nc2ccc(I)cc2s1)[C@@H]1C2C=CC(C2)[C@@H]1C(=O)O` (some centres unmarked) [Example 49, 3-[(6-iodo-1,3-benzothiazol-2-yl)carbamoyl]bicyclo[2.2.1]hept-5-ene-2-carboxylic acid], the 50% effective concentration (EC50) under setting [1] fell in the range of 1000 to 5000 nM.

For orientation: EC50 means the concentration at which the effect is half-maximal.
